Measurements from the NIST ThermoML archive (doi:10.1021/acs.jced.8b00589).
± gives the expanded uncertainty stated by the source.

How the values were obtained:
[1] = for surface tension liquid-gas: Ring tensiometer; for viscosity / speed of sound / mass density: 100 kPa, Liquid; for viscosity: Capillary tube (Ostwald / Ubbelohde) method; for speed of sound: Frequency=2 MHz, Linear variable-path acoustic interferometer; for mass density: Vibrating tube method
[2] = xn = mol fraction of the nth substance listed; settings: x2 = 0; for surface tension liquid-gas: Ring tensiometer; for viscosity / speed of sound / mass density: 100 kPa, Liquid; for viscosity: Capillary tube (Ostwald / Ubbelohde) method; for speed of sound: Frequency=2 MHz, Linear variable-path acoustic interferometer; for mass density: Vibrating tube method

SMILES	surface tension liquid-gas ([1]; 298.15 K) [mN/m]	viscosity ([1]; 298.15 K) [mPa·s]	speed of sound ([1]; 298.15 K) [m/s]	mass density ([1]; 298.15 K) [kg/m3]	surface tension liquid-gas ([1]; 308.15 K) [mN/m]	viscosity ([1]; 308.15 K) [mPa·s]	speed of sound ([1]; 308.15 K) [m/s]	mass density ([1]; 308.15 K) [kg/m3]	surface tension liquid-gas ([1]; 318.15 K) [mN/m]	viscosity ([1]; 318.15 K) [mPa·s]	speed of sound ([1]; 318.15 K) [m/s]	mass density ([1]; 318.15 K) [kg/m3]	surface tension liquid-gas ([1]; 323.15 K) [mN/m]	viscosity ([1]; 323.15 K) [mPa·s]	speed of sound ([1]; 323.15 K) [m/s]	mass density ([1]; 323.15 K) [kg/m3]	surface tension liquid-gas ([1]; 328.15 K) [mN/m]	viscosity ([1]; 328.15 K) [mPa·s]	speed of sound ([1]; 328.15 K) [m/s]	mass density ([1]; 328.15 K) [kg/m3]	other results
CCCCCC [hexane]	17.75 ± 0.85	0.295 ± 0.03	1073.2 ± 10	654.7 ± 1	16.63 ± 0.84	0.263 ± 0.03	1031.2 ± 10	645.4 ± 1	15.52 ± 0.84	0.24 ± 0.03	981.26 ± 10	636.2 ± 1	14.96 ± 0.84	0.232 ± 0.03	960.75 ± 10	631.2 ± 1	14.41 ± 0.83	0.223 ± 0.03	940.39 ± 10	626.4 ± 1	
Cc1cccc(C)c1 [1,3-dimethylbenzene] + CCC(C)(C)OC																					surface tension liquid-gas ([2]; 298.15 K): 28.19 ± 0.89 mN/m; viscosity ([2]; 298.15 K): 0.59 ± 0.03 mPa·s; speed of sound ([2]; 298.15 K): 1320.9 ± 10 m/s; mass density ([2]; 298.15 K): 859.1 ± 1 kg/m3; surface tension liquid-gas ([2]; 308.15 K): 26.95 ± 0.89 mN/m; viscosity ([2]; 308.15 K): 0.525 ± 0.03 mPa·s; speed of sound ([2]; 308.15 K): 1280 ± 10 m/s; mass density ([2]; 308.15 K): 849.2 ± 1 kg/m3; surface tension liquid-gas ([2]; 318.15 K): 25.64 ± 0.88 mN/m; viscosity ([2]; 318.15 K): 0.482 ± 0.03 mPa·s; speed of sound ([2]; 318.15 K): 1238.2 ± 10 m/s; mass density ([2]; 318.15 K): 840.4 ± 1 kg/m3; surface tension liquid-gas ([2]; 323.15 K): 25 ± 0.88 mN/m; viscosity ([2]; 323.15 K): 0.443 ± 0.03 mPa·s; speed of sound ([2]; 323.15 K): 1218.4 ± 10 m/s; mass density ([2]; 323.15 K): 835.8 ± 1 kg/m3; surface tension liquid-gas ([2]; 328.15 K): 24.37 ± 0.87 mN/m; viscosity ([2]; 328.15 K): 0.433 ± 0.03 mPa·s; speed of sound ([2]; 328.15 K): 1195.2 ± 10 m/s; mass density ([2]; 328.15 K): 831.6 ± 1 kg/m3
Cc1cccc(C)c1 [1,3-dimethylbenzene]	28.19 ± 0.89	0.59 ± 0.03	1320.9 ± 10	859.1 ± 1	26.95 ± 0.89	0.525 ± 0.03	1280 ± 10	849.2 ± 1	25.64 ± 0.88	0.482 ± 0.03	1238.2 ± 10	840.4 ± 1	25 ± 0.88	0.443 ± 0.03	1218.4 ± 10	835.8 ± 1	24.37 ± 0.87	0.433 ± 0.03	1195.2 ± 10	831.6 ± 1	
CCCCCC [hexane] + CCC(C)(C)OC																					surface tension liquid-gas ([2]; 298.15 K): 17.75 ± 0.85 mN/m; viscosity ([2]; 298.15 K): 0.295 ± 0.03 mPa·s; speed of sound ([2]; 298.15 K): 1073.2 ± 10 m/s; mass density ([2]; 298.15 K): 654.7 ± 1 kg/m3; surface tension liquid-gas ([2]; 308.15 K): 16.63 ± 0.84 mN/m; viscosity ([2]; 308.15 K): 0.263 ± 0.03 mPa·s; speed of sound ([2]; 308.15 K): 1031.2 ± 10 m/s; mass density ([2]; 308.15 K): 645.4 ± 1 kg/m3; surface tension liquid-gas ([2]; 318.15 K): 15.52 ± 0.84 mN/m; viscosity ([2]; 318.15 K): 0.24 ± 0.03 mPa·s; speed of sound ([2]; 318.15 K): 981.23 ± 10 m/s; mass density ([2]; 318.15 K): 636.2 ± 1 kg/m3; surface tension liquid-gas ([2]; 323.15 K): 14.96 ± 0.84 mN/m; viscosity ([2]; 323.15 K): 0.232 ± 0.03 mPa·s; speed of sound ([2]; 323.15 K): 960.75 ± 10 m/s; mass density ([2]; 323.15 K): 631.2 ± 1 kg/m3; surface tension liquid-gas ([2]; 328.15 K): 14.41 ± 0.83 mN/m; viscosity ([2]; 328.15 K): 0.223 ± 0.03 mPa·s; speed of sound ([2]; 328.15 K): 940.35 ± 10 m/s; mass density ([2]; 328.15 K): 626.4 ± 1 kg/m3
CCC(C)(C)OC [2-methoxy-2-methylbutane]	19.72 ± 0.85	0.424 ± 0.03	1118 ± 10	765.6 ± 1	18.66 ± 0.85	0.39 ± 0.03	1075.6 ± 10	756.3 ± 1	17.65 ± 0.85	0.357 ± 0.03	1031.1 ± 10	746.3 ± 1	17.13 ± 0.84	0.34 ± 0.03	1003 ± 10	741.4 ± 1	16.62 ± 0.84	0.328 ± 0.03	985.24 ± 10	736.5 ± 1	
